Data taken from ChEMBL document CHEMBL4382204 (Eur J Med Chem, 2018).
Calls of active or inactive are those of the source. The rule behind the calls is not given here.

Key:
[1] = biological target: Macrophage colony-stimulating factor 1 receptor (Homo sapiens) (UniProt P07333); experiment: Inhibition of wild type C-terminal FLAG-tagged human TEL fused CSF1R (unknown origin) transfected in mouse BAF3 cells assessed as growth inhibition after 72 hrs by CCK8 assay; format: cell-based
[2] = biological target: Platelet-derived growth factor receptor alpha (Homo sapiens) (UniProt P16234); experiment: Inhibition of wild type C-terminal FLAG-tagged human TEL fused PDGFRalpha (unknown origin) transfected in mouse BAF3 cells assessed as growth inhibition after 72 hrs by CCK8 assay; format: cell-based
[3] = biological target: Platelet-derived growth factor receptor beta (Homo sapiens) (UniProt P09619); experiment: Inhibition of wild type C-terminal FLAG-tagged human TEL fused PDGFRbeta (unknown origin) transfected in mouse BAF3 cells assessed as growth inhibition after 72 hrs by CCK8 assay; format: cell-based
[4] = biological target: Fibroblast growth factor receptor 3 (Homo sapiens) (UniProt P22607); experiment: Inhibition of wild type C-terminal FLAG-tagged human TEL fused FGFR3 (unknown origin) transfected in mouse BAF3 cells assessed as growth inhibition after 72 hrs by CCK8 assay; format: cell-based
[5] = biological target: Fibroblast growth factor receptor 4 (Homo sapiens) (UniProt P22455); experiment: Inhibition of wild type C-terminal FLAG-tagged human TEL fused FGFR4 (unknown origin) transfected in mouse BAF3 cells assessed as growth inhibition after 72 hrs by CCK8 assay; format: cell-based
[6] = biological target: Ephrin type-A receptor 1 (Homo sapiens) (UniProt P21709); experiment: Inhibition of wild type C-terminal FLAG-tagged human TEL fused EPHA1 (unknown origin) transfected in mouse BAF3 cells assessed as growth inhibition after 72 hrs by CCK8 assay; format: cell-based
KU812 cell line [7] = experiment: Antiproliferative activity in human KU812 cells after 72 hrs by CCK8 assay; format: functional; conditions: KU812, 72 h
MEG-01 [8] = experiment: Antiproliferative activity in human MEG01 cells after 72 hrs by CCK8 assay; format: functional; conditions: MEG-01, 72 h
[9] = biological target: T1, Bcr/Abl fusion protein (Homo sapiens) (UniProt P00519+P11274); experiment: (§1) Inhibition of BCR/ABL in human K562 cells assessed as inhibition of BCR/ABL autophosphorylation at Y245 site after 1 hr by immunoblotting analysis; format: cell-based
Bcr/Abl fusion protein [10] = biological target: Bcr/Abl fusion protein (Homo sapiens, UniProt P00519); experiment: as §1; format: cell-based
[11] = biological target: T1, Bcr/Abl fusion protein (Homo sapiens); experiment: Inhibition of BCR/ABL in human MEG01 cells assessed as inhibition of CrkL phosphorylation up to 0.3 uM after 1 hr by immunoblotting analysis; format: cell-based
[12] = biological target: T1, Bcr/Abl fusion protein (Homo sapiens); experiment: Inhibition of BCR/ABL in human MEG01 cells assessed as inhibition of ErK phosphorylation up to 0.3 uM after 1 hr by immunoblotting analysis; format: cell-based
[13] = biological target: T1, Bcr/Abl fusion protein (Homo sapiens); experiment: Inhibition of BCR/ABL in human KU812 cells assessed as inhibition of ErK phosphorylation up to 0.3 uM after 1 hr by immunoblotting analysis; format: cell-based
Bcr/Abl fusion protein [14] = biological target: Bcr/Abl fusion protein (Homo sapiens, UniProt P00519, T315I); experiment: Inhibition of BCR/ABL T315I mutant (unknown origin) expressed in mouse BAF3 cells assessed as inhibition of STAT5 phosphorylation after 1 hr by immunoblotting analysis; format: cell-based
BaF3 [15] = experiment: Induction of apoptosis in mouse BAF3 cells expressing BCR/ABL T315I mutant assessed as cleaved PARP level up to 0.3 uM after 24 hrs by immunoblotting analysis; format: functional, cell-based
MEG-01 [16] = experiment: Induction of apoptosis in human MEG01 cells assessed as cleaved caspase-3 level up to 0.3 uM after 24 hrs by immunoblotting analysis; format: functional, cell-based
KU812 cell line [17] = experiment: Induction of apoptosis in human KU812 cells assessed as cleaved caspase-3 level up to 0.3 uM after 24 hrs by immunoblotting analysis; format: functional, cell-based
K562 = experiment: Cell cycle arrest in human K562 cells assessed as accumulation at G0/G1 phase up to 0.3 uM after 24 hrs by propidium iodide/RNase staining based flow cytometric analysis; format: functional
MEG-01 [18] = experiment: Cell cycle arrest in human MEG01 cells assessed as accumulation at G0/G1 phase up to 0.3 uM after 24 hrs by propidium iodide/RNase staining based flow cytometric analysis; format: functional
KU812 cell line [19] = experiment: Cell cycle arrest in human KU812 cells assessed as accumulation at G0/G1 phase up to 0.3 uM after 24 hrs by propidium iodide/RNase staining based flow cytometric analysis; format: functional
[20] = AUC (0 to infinity) in mouse at 1 mg/kg, iv by LC-MS/MS analysis; format: ADME, organism-based; design: dose 1 mg/kg, route intravenous, time infinity; conditions: in vivo
[21] = Oral bioavailability in mouse at 10 mg/kg by LC-MS/MS analysis; format: ADME, organism-based; conditions: in vivo
[22] = AUC (0 to t) in Sprague-Dawley rat at 1 mg/kg, iv by LC-MS/MS analysis; format: ADME, organism-based; conditions: in vivo
[23] = AUC (0 to infinity) in Sprague-Dawley rat at 10 mg/kg, po by LC-MS/MS analysis; format: ADME, organism-based; design: dose 10 mg/kg, time infinity, route oral; conditions: in vivo
[24] = Toxicity in nu/nu mouse allografted with mouse BAF3 cells expressing BCR/ABL T315I mutant at 25 to 50 mg/kg, po administered daily via gavage for 14 days; format: organism-based; conditions: in vivo, 336 h
[25] = Toxicity in nu/nu mouse allografted with mouse BAF3 cells expressing BCR/ABL T315I mutant assessed as effect on body weight at 25 to 50 mg/kg, po administered daily via gavage for 14 days; format: organism-based; conditions: in vivo, 336 h
BaF3 [26] = experiment: Antitumor activity against mouse BAF3 cells expressing BCR/ABL T315I mutant allografted in po dosed nu/nu mouse assessed as tumor growth inhibition administered daily via gavage for 13 days; format: functional, organism-based
BaF3 [27] = experiment: Antitumor activity against mouse BAF3 cells expressing BCR/ABL T315I mutant allografted in nu/nu mouse assessed as tumor growth inhibition at 25 to 50 mg/kg, po administered via gavage for 14 days by Ki-67 staining based assay; format: functional, organism-based
BaF3 [28] = experiment: Antitumor activity against mouse BAF3 cells expressing BCR/ABL T315I mutant allografted in nu/nu mouse assessed as tumor growth inhibition at 25 to 50 mg/kg, po administered via gavage for 14 days by TUNEL staining based assay; format: functional, organism-based
[29] = biological target: T2, Tyrosine-protein kinase ABL1 (Homo sapiens, UniProt P00519, T315I); experiment: Inhibition of inactive wild type His-tagged ABL T315I mutant (229 to 500 residues) (unknown origin) expressed in baculovirus infected sf9 cells assessed as reduction in autophosphorylation preincubated for 60 mins followed by ATP addition measured after 8 hrs by ADP-Glo assay
[30] = biological target: T2, Tyrosine-protein kinase ABL1; experiment: Inhibition of active wild type His-tagged ABL T315I mutant (229 to 500 residues) (unknown origin) expressed in baculovirus infected sf9 cells using ABLtide as substrate after 1 hr by ADP-Glo assay
[31] = biological target: T1, Bcr/Abl fusion protein (Homo sapiens); conditions: BaF3
Description: Inhibition of wild type BCR/ABL (unknown origin) transfected in mouse BAF3 cells assessed as growth inhibition after 72 hrs by CCK8 assay

[32] = tested on: Bcr/Abl fusion protein (Homo sapiens), P00519+P11274 [F317L]; conditions: BaF3
[33] = tested on: Bcr/Abl fusion protein (Homo sapiens), P00519+P11274 [H396P]; conditions: BaF3

Fibroblast growth factor receptor 3 (Homo sapiens), sequence (P22607 23-806 limits assumed): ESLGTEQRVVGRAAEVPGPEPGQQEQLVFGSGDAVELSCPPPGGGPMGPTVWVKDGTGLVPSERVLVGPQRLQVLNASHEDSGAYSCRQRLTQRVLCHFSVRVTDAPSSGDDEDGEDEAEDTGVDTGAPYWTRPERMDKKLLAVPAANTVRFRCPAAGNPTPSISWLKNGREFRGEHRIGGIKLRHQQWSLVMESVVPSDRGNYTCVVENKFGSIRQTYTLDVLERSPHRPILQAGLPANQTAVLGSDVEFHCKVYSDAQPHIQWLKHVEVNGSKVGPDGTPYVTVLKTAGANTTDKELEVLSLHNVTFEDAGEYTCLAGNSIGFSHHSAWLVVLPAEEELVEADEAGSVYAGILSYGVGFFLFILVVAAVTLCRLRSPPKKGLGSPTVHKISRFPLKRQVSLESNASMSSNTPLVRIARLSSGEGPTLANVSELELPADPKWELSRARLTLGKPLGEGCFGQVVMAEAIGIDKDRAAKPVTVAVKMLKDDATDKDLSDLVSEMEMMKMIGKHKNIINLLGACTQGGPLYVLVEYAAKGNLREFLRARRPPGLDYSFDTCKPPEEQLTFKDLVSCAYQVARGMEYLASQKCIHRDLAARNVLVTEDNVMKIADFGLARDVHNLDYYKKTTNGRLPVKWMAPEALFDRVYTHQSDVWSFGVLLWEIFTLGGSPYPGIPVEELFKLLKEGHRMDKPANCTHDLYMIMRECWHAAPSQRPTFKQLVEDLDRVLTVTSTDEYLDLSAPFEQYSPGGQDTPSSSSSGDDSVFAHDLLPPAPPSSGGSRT
Macrophage colony-stimulating factor 1 receptor (Homo sapiens), sequence (P07333 whole entry, the tested form may be a part): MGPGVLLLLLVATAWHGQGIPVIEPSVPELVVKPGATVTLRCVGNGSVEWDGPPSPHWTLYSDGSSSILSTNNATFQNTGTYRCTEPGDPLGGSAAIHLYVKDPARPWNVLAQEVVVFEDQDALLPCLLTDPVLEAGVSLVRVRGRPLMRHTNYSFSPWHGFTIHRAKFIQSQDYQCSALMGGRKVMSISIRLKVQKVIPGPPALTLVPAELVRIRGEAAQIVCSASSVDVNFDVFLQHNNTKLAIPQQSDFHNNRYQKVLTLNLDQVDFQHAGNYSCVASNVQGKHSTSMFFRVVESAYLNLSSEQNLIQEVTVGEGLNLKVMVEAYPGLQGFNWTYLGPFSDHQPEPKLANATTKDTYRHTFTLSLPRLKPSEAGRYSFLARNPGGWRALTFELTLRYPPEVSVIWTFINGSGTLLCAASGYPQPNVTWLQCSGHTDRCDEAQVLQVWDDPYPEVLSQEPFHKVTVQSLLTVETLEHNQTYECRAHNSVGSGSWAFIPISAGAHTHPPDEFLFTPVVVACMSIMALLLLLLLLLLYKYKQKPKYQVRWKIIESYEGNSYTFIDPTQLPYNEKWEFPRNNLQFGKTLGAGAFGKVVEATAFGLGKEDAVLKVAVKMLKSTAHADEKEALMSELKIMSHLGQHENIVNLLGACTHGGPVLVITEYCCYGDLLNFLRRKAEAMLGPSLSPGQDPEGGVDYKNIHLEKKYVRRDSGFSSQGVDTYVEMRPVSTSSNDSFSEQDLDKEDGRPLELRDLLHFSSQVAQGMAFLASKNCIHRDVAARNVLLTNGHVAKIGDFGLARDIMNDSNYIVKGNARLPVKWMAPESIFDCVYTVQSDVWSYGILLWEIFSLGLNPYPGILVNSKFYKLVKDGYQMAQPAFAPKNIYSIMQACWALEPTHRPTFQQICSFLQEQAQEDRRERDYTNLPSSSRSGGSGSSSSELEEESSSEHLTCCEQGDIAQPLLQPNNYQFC
Platelet-derived growth factor receptor beta (Homo sapiens), sequence (P09619 whole entry, the tested form may be a part): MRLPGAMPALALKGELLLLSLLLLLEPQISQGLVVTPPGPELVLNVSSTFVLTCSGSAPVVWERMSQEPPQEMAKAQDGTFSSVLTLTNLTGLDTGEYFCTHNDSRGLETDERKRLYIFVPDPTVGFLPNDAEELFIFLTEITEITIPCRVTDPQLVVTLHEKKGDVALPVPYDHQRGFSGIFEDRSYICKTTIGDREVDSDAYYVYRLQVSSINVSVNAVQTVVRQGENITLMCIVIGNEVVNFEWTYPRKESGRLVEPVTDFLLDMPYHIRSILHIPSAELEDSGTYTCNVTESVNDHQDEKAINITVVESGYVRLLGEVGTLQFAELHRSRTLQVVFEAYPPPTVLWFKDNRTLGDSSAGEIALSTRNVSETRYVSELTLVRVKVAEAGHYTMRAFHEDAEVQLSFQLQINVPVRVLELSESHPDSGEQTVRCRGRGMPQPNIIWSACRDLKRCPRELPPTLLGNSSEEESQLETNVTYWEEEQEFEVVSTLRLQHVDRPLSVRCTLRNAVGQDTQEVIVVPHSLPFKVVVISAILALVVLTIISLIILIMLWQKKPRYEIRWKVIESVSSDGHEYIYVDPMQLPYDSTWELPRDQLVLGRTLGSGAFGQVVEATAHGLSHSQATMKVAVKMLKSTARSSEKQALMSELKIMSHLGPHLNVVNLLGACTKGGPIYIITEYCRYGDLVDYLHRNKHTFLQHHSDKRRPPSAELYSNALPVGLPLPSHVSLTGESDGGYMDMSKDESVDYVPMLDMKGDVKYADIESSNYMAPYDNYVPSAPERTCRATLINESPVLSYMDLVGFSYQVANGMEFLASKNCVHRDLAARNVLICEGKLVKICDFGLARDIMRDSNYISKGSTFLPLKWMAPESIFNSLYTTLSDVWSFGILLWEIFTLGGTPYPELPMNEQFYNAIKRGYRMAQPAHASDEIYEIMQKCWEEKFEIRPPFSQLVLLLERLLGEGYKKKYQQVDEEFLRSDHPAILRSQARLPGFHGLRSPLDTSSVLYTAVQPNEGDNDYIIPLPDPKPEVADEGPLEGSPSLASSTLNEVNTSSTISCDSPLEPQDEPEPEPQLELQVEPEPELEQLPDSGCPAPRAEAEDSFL
Fibroblast growth factor receptor 4 (Homo sapiens), sequence (P22455 22-802 limits assumed): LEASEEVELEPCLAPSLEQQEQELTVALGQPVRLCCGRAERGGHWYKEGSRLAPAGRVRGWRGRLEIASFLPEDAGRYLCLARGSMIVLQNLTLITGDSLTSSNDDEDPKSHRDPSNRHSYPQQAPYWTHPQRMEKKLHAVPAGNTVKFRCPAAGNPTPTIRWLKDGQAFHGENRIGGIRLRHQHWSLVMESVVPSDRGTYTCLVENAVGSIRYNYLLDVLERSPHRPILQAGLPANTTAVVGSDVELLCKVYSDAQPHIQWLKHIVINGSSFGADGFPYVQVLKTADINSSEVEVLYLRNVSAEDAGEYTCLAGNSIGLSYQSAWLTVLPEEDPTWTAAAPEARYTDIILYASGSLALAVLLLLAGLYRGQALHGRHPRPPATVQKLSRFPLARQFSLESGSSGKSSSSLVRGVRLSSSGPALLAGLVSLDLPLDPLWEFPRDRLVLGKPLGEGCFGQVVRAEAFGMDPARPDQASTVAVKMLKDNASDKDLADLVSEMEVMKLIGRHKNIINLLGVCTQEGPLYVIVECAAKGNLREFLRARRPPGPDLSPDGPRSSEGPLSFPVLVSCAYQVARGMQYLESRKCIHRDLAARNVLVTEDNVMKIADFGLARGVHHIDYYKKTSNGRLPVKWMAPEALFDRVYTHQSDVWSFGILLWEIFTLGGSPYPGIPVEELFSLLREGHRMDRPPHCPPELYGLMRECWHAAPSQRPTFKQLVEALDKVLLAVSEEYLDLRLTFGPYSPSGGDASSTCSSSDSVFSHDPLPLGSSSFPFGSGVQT
Platelet-derived growth factor receptor alpha (Homo sapiens), sequence (P16234 whole entry, the tested form may be a part): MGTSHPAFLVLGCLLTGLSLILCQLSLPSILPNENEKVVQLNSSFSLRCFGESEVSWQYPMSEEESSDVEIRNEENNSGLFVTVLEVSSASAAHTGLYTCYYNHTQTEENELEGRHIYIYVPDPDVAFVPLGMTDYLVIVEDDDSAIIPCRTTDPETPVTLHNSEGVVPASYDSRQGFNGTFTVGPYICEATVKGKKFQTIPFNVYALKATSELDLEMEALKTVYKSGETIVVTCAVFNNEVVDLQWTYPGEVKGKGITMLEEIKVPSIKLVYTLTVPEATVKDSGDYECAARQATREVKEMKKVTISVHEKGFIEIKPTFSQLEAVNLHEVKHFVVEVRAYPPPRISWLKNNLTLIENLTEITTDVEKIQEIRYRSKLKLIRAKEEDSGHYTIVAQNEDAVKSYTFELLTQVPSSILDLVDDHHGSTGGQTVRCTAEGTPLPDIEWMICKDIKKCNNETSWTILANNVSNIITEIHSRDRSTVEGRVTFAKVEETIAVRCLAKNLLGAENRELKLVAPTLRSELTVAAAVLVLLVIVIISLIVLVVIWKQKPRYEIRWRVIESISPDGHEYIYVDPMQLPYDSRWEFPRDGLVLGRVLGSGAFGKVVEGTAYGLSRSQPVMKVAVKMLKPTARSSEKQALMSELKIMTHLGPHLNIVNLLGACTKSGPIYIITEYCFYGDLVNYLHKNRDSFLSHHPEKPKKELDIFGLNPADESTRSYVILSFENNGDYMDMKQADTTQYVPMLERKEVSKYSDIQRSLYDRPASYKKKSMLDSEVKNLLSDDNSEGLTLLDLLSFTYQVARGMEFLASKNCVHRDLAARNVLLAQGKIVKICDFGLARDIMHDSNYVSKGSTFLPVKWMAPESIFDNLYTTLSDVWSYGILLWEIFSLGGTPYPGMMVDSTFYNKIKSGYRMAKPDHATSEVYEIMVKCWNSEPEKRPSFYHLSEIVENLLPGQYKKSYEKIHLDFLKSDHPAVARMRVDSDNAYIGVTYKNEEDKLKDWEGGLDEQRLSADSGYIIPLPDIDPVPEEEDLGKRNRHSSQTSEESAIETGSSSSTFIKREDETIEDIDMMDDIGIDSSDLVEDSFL

## CN1CCN(Cc2ccc(NC(=O)CCSc3ccc4c(/C=C/c5ccccn5)n[nH]c4c3)cc2C(F)(F)F)CC1
[1]
  GI50: < 1 nM
[2]
  GI50: 2 nM
[3]
  GI50: 8 nM
[4]
  GI50: 73 nM
[5]
  GI50: 75 nM
[6]
  GI50: 920 nM
KU812 cell line [7]
  GI50: 3 nM
MEG-01 [8]
  GI50: 1 nM
[9]
  inhibition: Dose-dependent effect
Bcr/Abl fusion protein [10]
  EC50: < 10 nM
[11]
  inhibition: Active
[12]
  inhibition: Active
[13]
  inhibition: Active
Bcr/Abl fusion protein [14]
  EC50: < 10 nM
BaF3 [15]
  Activity: Active
MEG-01 [16]
  Activity: Active
KU812 cell line [17]
  Activity: Active
K562
  Activity: Active
MEG-01 [18]
  Activity: Active
KU812 cell line [19]
  Activity: Active
[20]
  AUC(0-inf): 160 ng·h/mL
[21]
  bioavailability: 14.4%
[22]
  AUC(0-t): 192 ng·h/mL
[23]
  AUC(0-inf): 266 ng·h/mL
[24]
  Activity: Non-Toxic
[25]
  Activity: Non-Toxic
BaF3 [26]
  TGI: Dose-dependent effect
BaF3 [27]
  TGI: Active
BaF3 [28]
  TGI: Active
[29]
  IC50: 0.2 nM
[30]
  IC50: 0.2 nM
[31]
  GI50: 7 nM
[32]
  GI50: 18 nM
[33]
  GI50: 35 nM
